Measurements taken from article PMC4623676, “Methylation mediated by an anthocyanin, O-methyltransferase, is involved in purple flower coloration in Paeonia” (Journal of Experimental Botany, 2015).

Assays:
PsAOMT = test system: T1, PsAOMT; assay: HPLC of methylated product; format: biochemical, Paeonia suffruticosa; conditions: 200 μM SAM, 1.0 mM MgCl2, 14 mM β-mercaptoethanol, 100 mM Tris/HCl pH 7.5, 35 °C; MBP fusion; read-out: PsAOMT / K m
T1 construct: gene AOMT; dimer in solution; Leu-87; differs from PtAOMT at positions 13 (E), 85 (A), 87 (L), 205 (R)
Text: HPLC of methylated product on PsAOMT

PtAOMT = test system: T2, PtAOMT; assay: HPLC of methylated product; format: biochemical, Paeonia tenuifolia; conditions: 200 μM SAM, 1.0 mM MgCl2, 14 mM β-mercaptoethanol, 100 mM Tris/HCl pH 7.5, 35 °C; MBP fusion
T2 construct: gene AOMT; dimer in solution; Arg-87; Gly-13, Thr-85, Thr-205
Text: HPLC of methylated product on PtAOMT | K m of PtAOMT-R87L for Cy3G was slightly lower than its K m for Cy3G5G

SMILES | Km (PsAOMT) [µM] | Km (PtAOMT) [µM]
OC[C@H]1O[C@@H](Oc2cc3c(O)cc(O)cc3[o+]c2-c2ccc(O)c(O)c2)[C@H](O)[C@@H](O)[C@@H]1O [Cy3G, Cyanidin 3-O-glucoside] | 1.76 | 3.53 ± 0.31
C[C@@H]1O[C@@H](OC[C@H]2O[C@@H](Oc3c(-c4ccc(O)c(O)c4)oc4cc(O)cc(O)c4c3=O)[C@H](O)[C@@H](O)[C@@H]2O)[C@H](O)[C@H](O)[C@H]1O [Qu3R, Quercetin 3-O-rutinoside] | 12.3 | –
O=c1c(O)c(-c2ccc(O)c(O)c2)oc2cc(O)cc(O)c12 [Quercetin] | 4.33 | –
OC[C@H]1O[C@@H](Oc2cc3c(O)cc(O)cc3[o+]c2-c2cc(O)c(O)c(O)c2)[C@H](O)[C@@H](O)[C@@H]1O [Dp3G, Delphinidin 3-O-glucoside] | 4.11 | –
O=c1cc(-c2ccc(O)c(O)c2)oc2cc(O[C@@H]3O[C@H](CO)[C@@H](O)[C@H](O)[C@H]3O)cc(O)c12 [Lu7G, Luteolin 7-O-glucoside] | 146 | –
OC[C@H]1O[C@@H](Oc2cc3c(O[C@@H]4O[C@H](CO)[C@@H](O)[C@H](O)[C@H]4O)cc(O)cc3[o+]c2-c2ccc(O)c(O)c2)[C@H](O)[C@@H](O)[C@@H]1O [Cy3G5G, Cyanidin 3,5-di-O-glucoside] | 1.06 | 8.51 ± 1.39
